# Source: the supplement of paper PMC4862054
# Assays:
# Details in all cases: incubation time: 72 h
# [1] = test system: CAL-120; assay: normalised response (% of control), CellTiter-Glo; higher = more viable cells (100 = DMSO, 0 = benzethonium chloride kill control)
# Summary of the method: (§1)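 After 72 h with compound in 384-well plates, breast cancer cell lines seeded as 20 µl suspension were read for CellTox Green fluorescence at 485/520 nm. CellTiter-Glo luminescence was then read after 10 min at room temperature. Compound was present at 5 concentrations in 10-fold steps over a 10,000-fold range set per compound, and plates were normalised to 0.1 % DMSO (100) and a positive kill control (0). Values are normalised signals, each at a single concentration.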
# [2] = test system: HCC1599; assay: as above
# Summary of the method: as §1
# [3] = test system: DU-4475; assay: as above
# Summary of the method: as §1
# [4] = test system: Hs578T; assay: as above
# Summary of the method: as §1
# [5] = test system: MDA-MB-453; assay: as above
# Summary of the method: as §1
# [6] = test system: MDA-MB-231; assay: as above
# Summary of the method: as §1
# [7] = test system: MDA-MB-436; assay: as above
# Summary of the method: as §1
# [8] = test system: HCC1143; assay: as above
# Summary of the method: as §1
# [9] = test system: CAL-85-1; assay: as above
# Summary of the method: as §1
# [10] = test system: MFM-223; assay: as above
# Summary of the method: as §1
# [11] = test system: BT-549; assay: as above
# Summary of the method: as §1
# [12] = test system: HCC1937; assay: as above
# Summary of the method: as §1
# [13] = test system: SK-BR-3; assay: as above
# Summary of the method: as §1
# [14] = test system: MDA-MB-468; assay: as above
# Summary of the method: as §1
# [15] = test system: HDQ-P1; assay: as above
# Summary of the method: as §1
# [16] = test system: BT-474; assay: as above
# Summary of the method: as §1
# [17] = test system: CAL-148; assay: as above
# Summary of the method: as §1
# [18] = test system: CAL-51; assay: as above
# Summary of the method: as §1
# [19] = test system: MCF-10A; assay: as above
# Summary of the method: as §1
# [20] = test system: CAL-120; assay: normalised response (% of control), CellTox Green; higher = less cell death (100 = DMSO, 0 = benzethonium chloride kill control)
# Summary of the method: as §1
# [21] = test system: HCC1599; assay: as above
# Summary of the method: as §1
# [22] = test system: DU-4475; assay: as above
# Summary of the method: as §1
# [23] = test system: Hs578T; assay: as above
# Summary of the method: as §1
# [24] = test system: MDA-MB-453; assay: as above
# Summary of the method: as §1
# [25] = test system: MDA-MB-231; assay: as above
# Summary of the method: as §1
# [26] = test system: MDA-MB-436; assay: as above
# Summary of the method: as §1
# [27] = test system: HCC1143; assay: as above
# Summary of the method: as §1
# [28] = test system: CAL-85-1; assay: as above
# Summary of the method: as §1
# [29] = test system: MFM-223; assay: as above
# Summary of the method: as §1
# [30] = test system: BT-549; assay: as above
# Summary of the method: as §1
# [31] = test system: HCC1937; assay: as above
# Summary of the method: as §1
# [32] = test system: MDA-MB-468; assay: as above
# Summary of the method: as §1
# [33] = test system: HDQ-P1; assay: as above
# Summary of the method: as §1
# [34] = test system: BT-474; assay: as above
# Summary of the method: as §1
# [35] = test system: CAL-148; assay: as above
# Summary of the method: as §1
# [36] = test system: CAL-51; assay: as above
# Summary of the method: as §1
# [37] = test system: MCF-10A; assay: as above
# Summary of the method: as §1
Structure (SMILES),normalised response [1] [%],normalised response [2] [%],normalised response [3] [%],normalised response [4] [%],normalised response [5] [%],normalised response [6] [%],normalised response [7] [%],normalised response [8] [%],normalised response [9] [%],normalised response [10] [%],normalised response [11] [%],normalised response [12] [%],normalised response [13] [%],normalised response [14] [%],normalised response [15] [%],normalised response [16] [%],normalised response [17] [%],normalised response [18] [%],normalised response [19] [%],normalised response [20] [%],normalised response [21] [%],normalised response [22] [%],normalised response [23] [%],normalised response [24] [%],normalised response [25] [%],normalised response [26] [%],normalised response [27] [%],normalised response [28] [%],normalised response [29] [%],normalised response [30] [%],normalised response [31] [%],normalised response [32] [%],normalised response [33] [%],normalised response [34] [%],normalised response [35] [%],normalised response [36] [%],normalised response [37] [%]
CNC(=O)c1cc(Oc2ccc(NC(=O)Nc3cc(C(C)(C)C)nn3-c3ccc4ncccc4c3)c(F)c2)ccn1 [Rebastinib] (100 nM),92.2,110,101,114,101,90,110,110,101,65.3,111,108,104,113,114,97,105,120,119,101,99.2,103,98.8,101,90.2,97.3,113,103,95.3,95,112,118,94.4,98.6,84,105,–
CC[C@H](Nc1ncnc2[nH]cnc12)c1nc2cccc(F)c2c(=O)n1-c1ccccc1 [GS-1101] (1000 nM),89.9,110,92.3,100,89.6,85.5,85.3,84.9,93.2,90.3,82.8,94.9,79.6,86.9,87.7,84.6,97.7,97.3,78.9,96.9,93.7,96.9,93.8,107,84.2,–,97.4,94.1,101,105,–,88.1,106,98.7,80.2,88.6,112
Cc1ccc(-c2cc(C(F)(F)F)nn2-c2ccc(S(N)(=O)=O)cc2)cc1 [Celecoxib] (1000 nM),98.1,99.6,94,107,99,96.4,101,99.9,93.3,100,107,109,101,99.8,100,100,91.3,118,112,101,99.1,101,–,105,106,105,104,104,96,115,111,121,112,101,104,117,81.4
Nc1nc(F)nc2c1ncn2[C@@H]1O[C@H](CO)[C@@H](O)[C@@H]1O [Fludarabine] (1000 nM),97.8,108,102,102,101,108,102,106,98.5,107,98.2,99.3,107,102,102,110,97.2,131,106,101,105,105,50.2,101,114,–,117,109,101,107,88.6,124,111,102,99.5,122,79.7
